Source: US4563472A, “Iodoallyl and iodopropargyl substituted tetrazoles and anti-microbial compositions thereof” (Meiji Seika Kaisha, Ltd., priority 1982, dated 1986)
Values after ≈ are worked out from the molar mass of the structure shown. Where two headings read alike, the source gives them in different places.

How the values were obtained:
Mucor spinescens IAM Mu3 = assay: Antifungal Activity (in Industrial Field), MIC; type: cell-based; conditions: IAMMU3, read-out: Minimal Inhibitory Conc. (MIC)
[1] = tested on: Chaetomium globosum ATCC 6205; assay: Antifungal Activity (in Industrial Field), MIC; type: cell-based; conditions: ATCC6205, read-out: Minimal Inhibitory Conc. (MIC)
[2] = tested on: Trichophyton metagrophytes 530324; assay: Antifungal Activity (in Medicinal Field), MIC; type: cell-based
Candida alubicans GA-24 = assay: Antifungal Activity (in Medicinal Field), MIC; type: cell-based
[3] = tested on: Aspergillus terreus PQMD 82 j; assay: Antifungal Activity (in Industrial Field), MIC; type: cell-based; conditions: PQMD82J, read-out: Minimal Inhibitory Conc. (MIC)
[4] = tested on: Cladosporium herbarum IAM F-517; assay: Antifungal Activity (in Industrial Field), MIC; type: cell-based; conditions: IAMF517, read-out: Minimal Inhibitory Conc. (MIC)
[5] = tested on: Pullularia pullulans IAM F-24; assay: Antifungal Activity (in Industrial Field), MIC; type: cell-based; conditions: IAMF24; Pullularia pullulans IAM F-24; read-out: Minimal Inhibitory Conc. (MIC)
[6] = tested on: Aspergillus flavus ATCC 6275; assay: Antifungal Activity (in Industrial Field), MIC; type: cell-based; conditions: ATCC6275, read-out: Minimal Inhibitory Conc. (MIC)
[7] = tested on: Trichophyton interdigitale; assay: Antifungal Activity (in Medicinal Field), MIC; type: cell-based; conditions: read-out: Minimal Inhibitory Conc. (MIC)
[8] = tested on: Trichoderma T-1 ATCC 9645; assay: Antifungal Activity (in Industrial Field), MIC; type: cell-based; conditions: ATCC9645, read-out: Minimal Inhibitory Conc. (MIC)
[9] = tested on: Penicillium luteum ATCC 9644; assay: Antifungal Activity (in Industrial Field), MIC; type: cell-based; conditions: Ascospirella lutea, ATCC9644, read-out: Minimal Inhibitory Conc. (MIC)
[10] = tested on: Cryptococcus neoformans Cr-1; assay: Antifungal Activity (in Medicinal Field), MIC; type: cell-based; conditions: CR1, read-out: Minimal Inhibitory Conc. (MIC)
[11] = tested on: Rhizopus nigricans S.N. 32; assay: Antifungal Activity (in Industrial Field), MIC; type: cell-based; conditions: Rhizopus stolonifer, read-out: Minimal Inhibitory Conc. (MIC)
[12] = tested on: Aspergillus fumigatus IAM 2621; assay: Antifungal Activity (in Industrial Field), MIC; type: cell-based; conditions: IAM2621, read-out: Minimal Inhibitory Conc. (MIC)
[13] = tested on: Aspergillus fumigatus Saito; assay: Antifungal Activity (in Medicinal Field), MIC; type: cell-based; conditions: read-out: Minimal Inhibitory Conc. (MIC)
[14] = tested on: Colletotrichum lagenarium; assay: Antibacterial and Antifungal Activities (in Agricultural Field), MIC; type: cell-based; conditions: Colletotrichum orbiculare, read-out: Minimal Inhibitory Conc. (MIC)
[15] = tested on: Fusarium oxysporum f. lycopersici; assay: as above; type: cell-based; conditions: read-out: Minimal Inhibitory Conc. (MIC)
Botrytis cinerea = assay: as above; type: cell-based; conditions: read-out: Minimal Inhibitory Conc. (MIC)
Alternaria kikuchiana = assay: as above; type: cell-based; conditions: read-out: Minimal Inhibitory Conc. (MIC)
Pellicularia filamentosa = assay: as above; type: cell-based; conditions: read-out: Minimal Inhibitory Conc. (MIC)
Cochliobolus miyabeanus = assay: as above; type: cell-based; conditions: Bipolaris oryzae, read-out: Minimal Inhibitory Conc. (MIC)
[16] = tested on: Xanthomonas campestris pv. oryzae; assay: microbe, parasite or virus in culture; type: cell-based; conditions: read-out: Minimal Inhibitory Conc. (MIC)
Gibberella fujikuroi = assay: Antibacterial and Antifungal Activities (in Agricultural Field), MIC; type: cell-based; conditions: Fusarium fujikuroi, read-out: Minimal Inhibitory Conc. (MIC)
Glomerella cingulata = assay: as above; type: cell-based; conditions: Colletotrichum gloeosporioides, read-out: Minimal Inhibitory Conc. (MIC)
[17] = tested on: Trichophyton mentagrophytes; assay: Therapeutic experiment on trichophytosis in guinea pigs, visual observation; type: in vivo, guinea pigs (White Hartly-strain); conditions: 1% preparation, 0.25 ml once per day, 8 consecutive days
Phricularia oryzae = assay: Antibacterial and Antifungal Activities (in Agricultural Field), MIC; type: cell-based; conditions: read-out: Minimal Inhibitory Conc. (MIC)
[18] = tested on: Corynebacterium michiganense; assay: as above; type: cell-based; conditions: Clavibacter michiganensis, read-out: Minimal Inhibitory Conc. (MIC)
[19] = tested on: Pseudomonas syringae pv. tabaci; assay: as above; type: cell-based; conditions: read-out: Minimal Inhibitory Conc. (MIC)
Diaporithe citri = assay: as above; type: cell-based; conditions: read-out: Minimal Inhibitory Conc. (MIC)
[20] = tested on: Xanthomonas campestris pv. citri; assay: as above; type: cell-based; conditions: read-out: Minimal Inhibitory Conc. (MIC)
Erwinia carotovora = assay: as above; type: cell-based; conditions: Pectobacterium carotovorum, read-out: Minimal Inhibitory Conc. (MIC)
[21] = tested on: Trichophyton mentagrophytes; assay: Reducing culture positive rate of skin slices from infected guinea pigs; type: in vivo, guinea pigs (White Hartly-strain); set-up: concentration or dose not given beside the values; conditions: after 8 days application, non-treated 100
[22] = Trichophyton, 530324, read-out: Minimal Inhibitory Conc. (MIC)
[23] = Candida, GA24, read-out: Minimal Inhibitory Conc. (MIC)
[24] = Trichophyton metagrophytes 530324, read-out: Minimal Inhibitory Conc. (MIC)
[25] = GA24, Candida alubicans GA-24, read-out: Minimal Inhibitory Conc. (MIC)

SMILES: IC#CCn1cncn1 [1-(1'-iodopropyn-3'-yl)-1,2,4-triazole]
- MIC (Mucor spinescens IAM Mu3): 6.25 µg/mL (≈ 26.8 µM)
- MIC [1]: 25 µg/mL (≈ 107 µM)
- MIC [2, 22]: 1.56 µg/mL (≈ 6.69 µM)
- MIC (Candida alubicans GA-24; [23]): 3.12 µg/mL (≈ 13.4 µM)
- MIC [3]: 0.39 µg/mL (≈ 1.67 µM)
- MIC [4]: 3.13 µg/mL (≈ 13.4 µM)
- MIC [5]: 3.13 µg/mL (≈ 13.4 µM)
- MIC [6]: 6.25 µg/mL (≈ 26.8 µM)
- MIC [7]: 0.78 µg/mL (≈ 3.35 µM)
- MIC [8]: 3.13 µg/mL (≈ 13.4 µM)
- MIC [9]: 3.13 µg/mL (≈ 13.4 µM)
- MIC [10]: 0.78 µg/mL (≈ 3.35 µM)
- MIC [11]: 3.13 µg/mL (≈ 13.4 µM)
- MIC [12]: 50 µg/mL (≈ 215 µM)
- MIC [13]: 0.78 µg/mL (≈ 3.35 µM)

SMILES: O=[N+]([O-])c1cn(CC#CI)c(Cl)c1Cl [1-(1'-iodopropyn-3'-yl)-2,3-dichloro-4-nitropyrrole]
- MIC (Mucor spinescens IAM Mu3): 0.39 µg/mL (≈ 1.13 µM)
- MIC [1]: 1.56 µg/mL (≈ 4.52 µM)
- MIC [14]: 1.56 µg/mL (≈ 4.52 µM)
- MIC [2, 24]: 0.09 µg/mL (≈ 0.261 µM)
- MIC [15]: 3.12 µg/mL (≈ 9.05 µM)
- MIC (Botrytis cinerea): 0.39 µg/mL (≈ 1.13 µM)
- MIC (Candida alubicans GA-24; [25]): 0.78 µg/mL (≈ 2.26 µM)
- MIC [3]: 0.39 µg/mL (≈ 1.13 µM)
- MIC [4]: 6.25 µg/mL (≈ 18.1 µM)
- MIC [5]: 6.25 µg/mL (≈ 18.1 µM)
- MIC [6]: 0.39 µg/mL (≈ 1.13 µM)
- MIC (Alternaria kikuchiana): 0.78 µg/mL (≈ 2.26 µM)
- MIC (Pellicularia filamentosa): > 50 µg/mL
- MIC [7]: 0.39 µg/mL (≈ 1.13 µM)
- MIC (Cochliobolus miyabeanus): 12.5 µg/mL (≈ 36.2 µM)
- MIC [8]: 3.12 µg/mL (≈ 9.05 µM)
- MIC [9]: 0.78 µg/mL (≈ 2.26 µM)
- MIC [10]: 1.56 µg/mL (≈ 4.52 µM)
- MIC [16]: 0.39 µg/mL (≈ 1.13 µM)
- MIC [12]: < 0.09 µg/mL
- MIC (Gibberella fujikuroi): 1.56 µg/mL (≈ 4.52 µM)
- MIC (Glomerella cingulata): 0.19 µg/mL (≈ 0.551 µM)
- MIC [13]: 0.39 µg/mL (≈ 1.13 µM)

SMILES: O=[N+]([O-])c1cc(Cl)n(CC#CI)c1 [1-(1'-iodopropyn-3'-yl)-2-chloro-4-nitropyrrole]
- MIC (Mucor spinescens IAM Mu3): 0.78 µg/mL (≈ 2.51 µM)
- MIC [1]: 12.5 µg/mL (≈ 40.3 µM)
- MIC [3]: 0.19 µg/mL (≈ 0.612 µM)
- MIC [4]: 1.56 µg/mL (≈ 5.02 µM)
- MIC [5]: 1.56 µg/mL (≈ 5.02 µM)
- MIC [6]: 0.39 µg/mL (≈ 1.26 µM)
- MIC [8]: 3.12 µg/mL (≈ 10 µM)
- MIC [9]: 0.39 µg/mL (≈ 1.26 µM)
- MIC [12]: 0.19 µg/mL (≈ 0.612 µM)

SMILES: O=[N+]([O-])c1ccn(CC#CI)c1 [1-(1'-iodopropyn-3'-yl)-3-nitropyrrole]
- MIC [14]: 3.12 µg/mL (≈ 11.3 µM)
- MIC [2, 24]: 0.19 µg/mL (≈ 0.688 µM)
- MIC [15]: 3.12 µg/mL (≈ 11.3 µM)
- MIC (Botrytis cinerea): 0.78 µg/mL (≈ 2.83 µM)
- MIC (Candida alubicans GA-24; [25]): 0.78 µg/mL (≈ 2.83 µM)
- MIC (Alternaria kikuchiana): 1.56 µg/mL (≈ 5.65 µM)
- MIC (Pellicularia filamentosa): 50 µg/mL (≈ 181 µM)
- MIC [7]: 0.78 µg/mL (≈ 2.83 µM)
- MIC (Cochliobolus miyabeanus): 6.25 µg/mL (≈ 22.6 µM)
- MIC [10]: 0.09 µg/mL (≈ 0.326 µM)
- MIC [16]: 0.39 µg/mL (≈ 1.41 µM)
- MIC (Gibberella fujikuroi): 3.12 µg/mL (≈ 11.3 µM)
- MIC (Glomerella cingulata): 0.78 µg/mL (≈ 2.83 µM)
- MIC [13]: 0.09 µg/mL (≈ 0.326 µM)

SMILES: IC#CCn1cccn1 [1-(1'-iodopropyn-3'-yl)pyrazole]
- MIC (Mucor spinescens IAM Mu3): 1.56 µg/mL (≈ 6.72 µM)
- MIC [1]: 12.5 µg/mL (≈ 53.9 µM)
- MIC [2, 22]: 0.39 µg/mL (≈ 1.68 µM)
- MIC (Candida alubicans GA-24; [23]): 3.12 µg/mL (≈ 13.4 µM)
- MIC [3]: 0.78 µg/mL (≈ 3.36 µM)
- MIC [4]: 3.13 µg/mL (≈ 13.5 µM)
- MIC [5]: 3.13 µg/mL (≈ 13.5 µM)
- MIC [6]: 1.56 µg/mL (≈ 6.72 µM)
- MIC [7]: 0.39 µg/mL (≈ 1.68 µM)
- MIC [8]: 3.13 µg/mL (≈ 13.5 µM)
- MIC [9]: 0.78 µg/mL (≈ 3.36 µM)
- MIC [10]: 0.78 µg/mL (≈ 3.36 µM)
- MIC [11]: 1.56 µg/mL (≈ 6.72 µM)
- MIC [12]: 1.56 µg/mL (≈ 6.72 µM)
- MIC [13]: 0.78 µg/mL (≈ 3.36 µM)

SMILES: IC#CCn1cnnn1 [1-(1'-iodopropyn-3'-yl)tetrazole]
- MIC (Mucor spinescens IAM Mu3): 3.13 µg/mL (≈ 13.4 µM)
- MIC [1]: 3.13 µg/mL (≈ 13.4 µM)
- MIC [2, 22]: 0.78 µg/mL (≈ 3.33 µM)
- MIC (Candida alubicans GA-24; [23]): 1.56 µg/mL (≈ 6.67 µM)
- MIC [3]: 0.2 µg/mL (≈ 0.855 µM)
- MIC [4]: 1.56 µg/mL (≈ 6.67 µM)
- MIC [5]: 1.56 µg/mL (≈ 6.67 µM)
- MIC [6]: 1.56 µg/mL (≈ 6.67 µM)
- MIC [7]: 0.78 µg/mL (≈ 3.33 µM)
- MIC [8]: 0.78 µg/mL (≈ 3.33 µM)
- MIC [9]: 1.56 µg/mL (≈ 6.67 µM)
- MIC [10]: 0.39 µg/mL (≈ 1.67 µM)
- MIC [11]: 3.13 µg/mL (≈ 13.4 µM)
- MIC [12]: 12.5 µg/mL (≈ 53.4 µM)
- MIC [13]: 0.39 µg/mL (≈ 1.67 µM)

SMILES: O=[N+]([O-])c1ccn(CC(I)=C(I)I)c1 [1-(2',3',3'-triiodoallyl)-3-nitropyrrole]
- Therapeutic Effect: Desquamation [17]: effective
- Therapeutic Effect: Thickening [17]: effective
- MIC (Phricularia oryzae): 1.56 µg/mL (≈ 2.94 µM)
- MIC [14]: 0.39 µg/mL (≈ 0.736 µM)
- MIC [2, 24]: 0.19 µg/mL (≈ 0.359 µM)
- MIC [15]: 0.78 µg/mL (≈ 1.47 µM)
- MIC (Botrytis cinerea): 0.19 µg/mL (≈ 0.359 µM)
- MIC (Candida alubicans GA-24; [25]): 0.19 µg/mL (≈ 0.359 µM)
- MIC [18]: 0.98 µg/mL (≈ 1.85 µM)
- MIC [19]: 6.25 µg/mL (≈ 11.8 µM)
- MIC (Alternaria kikuchiana): 0.78 µg/mL (≈ 1.47 µM)
- MIC (Diaporithe citri): 0.39 µg/mL (≈ 0.736 µM)
- MIC (Pellicularia filamentosa): 50 µg/mL (≈ 94.4 µM)
- MIC [20]: 50 µg/mL (≈ 94.4 µM)
- MIC (Erwinia carotovora): 6.25 µg/mL (≈ 11.8 µM)
- MIC [7]: 0.39 µg/mL (≈ 0.736 µM)
- MIC (Cochliobolus miyabeanus): 12.5 µg/mL (≈ 23.6 µM)
- Reducing Culture Positive Rate ([21]; 3 days culture): 16.7%
- Reducing Culture Positive Rate ([21]; 5 days culture): 25.0%
- Reducing Culture Positive Rate ([21]; 7 days culture): 33.3%
- MIC [10]: 0.39 µg/mL (≈ 0.736 µM)
- MIC [16]: 25 µg/mL (≈ 47.2 µM)
- MIC (Gibberella fujikuroi): 0.39 µg/mL (≈ 0.736 µM)
- MIC (Glomerella cingulata): 0.39 µg/mL (≈ 0.736 µM)
- MIC [13]: 0.09 µg/mL (≈ 0.17 µM)
